According to US11306062B2, “Forms of fedratinib dihydrochloride” (Johnson Matthey Public Limited Company, priority 2019, dated 2022):

Columns and labels:
[1] = Retention of Form A on slurrying in multiple solvents (XRPD); type: physicochemical; settings: ~30 mg in 0.2 mL of each of water, ethanol, MTBE, IPA, IPAc, 3-methyl-1-butanol, toluene, anisole, acetone, THF, MEK, MIBK, DCM, 1,4-dioxane, 2-butanol, 2-methyl THF, isobutyl acetate, tert-butanol, methyl cyclohexane, CPME; slurried about 3 days at 20° C.
Method: (§1) XRPD patterns are obtained using a Bruker D8 Advance equipped with a Cu Kα radiation source (λ=1.54 Å), a 9-position sample holder and a LYNXEYE super speed detector. Samples are placed on zero-background, silicon plate holders for analysis. One skilled in the art would recognize that the ° 2θ values and the relative intensity values are generated by performing a peak search on the measured data and the d-spacing values are calculated by the instrument from the ° 2θ values using Bragg's equation. One skilled in the art would further recognize that the relative intensity for the measured peaks may vary as a result of sample preparation, orientation and instrument used, for example.
In another embodiment, Form A of fedratinib diHCl is retained by producing a slurry. […]

[2] = Dynamic vapor sorption (DVS) humidity cycling, solid analysed by XRPD; type: physicochemical; settings: start 50% relative humidity, up to 90%, down to 0%, 10% steps, cycle repeated 3 times
Method: as §1
In another embodiment, amorphous fedratinib diHCl is prepared by: • a) subjecting Form A of fedratinib diHCl to a dynamic vapor sorption method to yield amorphous fedratinib diHCl, wherein the dynamic vapor sorption method comprises exposing the Form A of fedratinib diHCl to a relative humidity of about 50% and adjusting the relative humidity to between about 0-90% with about a 10% increase or decrease in humidity at each step for 3 cycles.
Form A of fedratinib diHCl is subjected to DVS with initial exposure to 50% relative humidity. The relative humidity is then increased to 90% with a 10% increase in humidity at each step. […]

For `Cc1cnc(Nc2ccc(OCCN3CCCC3)cc2)nc1Nc1cccc(S(=O)(=O)NC(C)(C)C)c1` [Form A of fedratinib diHCl, N-tert-butyl-3-[[5-methyl-2-[4-(2-pyrrolidin-1-ylethoxy)anilino]pyrimidin-4-yl]amino]benzenesulfonamide], the “solid form by XRPD after slurry” value [1] was “determined to be Form A of fedratinib diHCl” and the “solid form by XRPD after DVS” value [2] was “determined to be amorphous fedratinib diHCl”.
